Measurements reported in patent US11109593B2, “Isoxazolin-5-one derivative and herbicide containing same as active ingredient” (HOKKO CHEMICAL INDUSTRY CO., LTD., priority 2017, dated 2021).

How the values were obtained:
Format in all cases: in vivo
Echinochloa crus-galli [1] = assay: Test Example 1: herbicidal effect test by treatment of rice paddy soil (immediately after seeding); settings: 120 g/10a active ingredient, dry weight vs untreated area, 14 days after treatment
In short: (§1)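 Flooded paddy pot test in a glass greenhouse: emulsion diluted in water, dropped at 120 g a.i. per 10 ares just after sowing, water depth kept about 3 cm. Dry-weight reduction relative to untreated plants is scored at 14 days.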

Scirpus juncoides [2] = assay: as above; settings: 120 g/10a active ingredient, dry weight vs untreated area, 14 days after treatment
In short: as §1

[3] = test system: broad leaf weeds (Lindernia pyxidaria and Monochoria vaginalis); assay: as above; settings: 120 g/10a active ingredient, dry weight vs untreated area, 14 days after treatment
In short: as §1

Echinochloa crus-galli [4] = assay: Test Example 2: herbicidal effect test by treatment during growing period in paddy rice cultivation (seven days after seeding); settings: 120 g/10a active ingredient, assessed 14 days after treatment, dry weight vs untreated area
In short: (§2)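 Paddy soil in Wagner pots with compound fertilizer, puddled; 30 seeds per species sown at 0–1 cm, flooded ~3 cm, greenhouse. Seven days after seeding, water-diluted emulsions were dropped into the water at 120 g active ingredient per 10 ares. Duplicate pots; herbicidal rate from dry weight versus untreated, 14 days after treatment.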

Scirpus juncoides [5] = assay: as above; settings: 120 g/10a active ingredient, assessed 14 days after treatment, dry weight vs untreated area
In short: as §2

[6] = test system: broad leaf weeds (Lindernia pyxidaria and Monochoria vaginalis); assay: as above; settings: 120 g/10a active ingredient, assessed 14 days after treatment, dry weight vs untreated area
In short: as §2

Amaranthus viridis [7] = assay: Test Example 3: herbicidal effect test by treatment of dry field farming soil (one day after seeding); settings: 120 g/10a active ingredient, evaluated 14 days after treatment
In short: (§3)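 Pre-emergence soil treatment: alluvial dry-field soil, 20 seeds per species mixed into top 1 cm, emulsion diluted in water sprayed one day after seeding at 100 L per 10 ares (120 g active ingredient per 10 ares). Duplicate pots; herbicidal rate (%) from dry weight vs untreated at 14 days.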

Chenopodium album [8] = assay: as above; settings: 120 g/10a active ingredient, evaluated 14 days after treatment
In short: as §3

Echinochloa crus-galli [9] = assay: as above; settings: 120 g/10a active ingredient, evaluated 14 days after treatment
In short: as §3

southern crabgrass [10] = assay: as above; settings: 120 g/10a active ingredient, evaluated 14 days after treatment
In short: as §3

Amaranthus viridis [11] = assay: Test Example 4: herbicidal effect test by treatment of leave and stem in dry field farming (seven days after seeding); settings: 120 g/10a active ingredient; emulsion sprayed seven days after seeding; evaluated 14 days after treatment
In short: (§4)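 Weeds were seeded at 20 seeds per species into the top 1 cm of alluvial upland soil in pots, then sprayed 7 days after seeding with water-diluted emulsifiable concentrate at 100 L/10 a, giving 120 g active ingredient/10 a. Duplicate pots; herbicidal rate (%) was 14 days post-treatment, from dry weight versus untreated.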

Chenopodium album [12] = assay: as above; settings: 120 g/10a active ingredient; emulsion sprayed seven days after seeding; evaluated 14 days after treatment
In short: as §4

Echinochloa crus-galli [13] = assay: as above; settings: 120 g/10a active ingredient; emulsion sprayed seven days after seeding; evaluated 14 days after treatment
In short: as §4

southern crabgrass [14] = assay: as above; settings: 120 g/10a active ingredient; emulsion sprayed seven days after seeding; evaluated 14 days after treatment
In short: as §4

| SMILES | Herbicidal rate (%) Echinochloa crus-galli (Echinochloa crus-galli [1]) | Herbicidal rate (%) Scirpus juncoides (Scirpus juncoides [2]) | Herbicidal rate (%) Lindernia pyxidaria [3] | Herbicidal rate (%) Monochoria vaginalis [3] | Herbicidal rate (%) Echinochloa crus-galli (Echinochloa crus-galli [4]) | Herbicidal rate (%) Scirpus juncoides (Scirpus juncoides [5]) | Herbicidal rate (%) Lindernia pyxidaria [6] | Herbicidal rate (%) Monochoria vaginalis [6] | herbicidal rate, Amaranthus viridis (Amaranthus viridis [7]) | herbicidal rate, Chenopodium album (Chenopodium album [8]) | herbicidal rate, Echinochloa crus-galli (Echinochloa crus-galli [9]) | herbicidal rate, southern crabgrass (southern crabgrass [10]) | herbicidal effect (herbicidal rate), Amaranthus viridis (Amaranthus viridis [11]) | herbicidal effect (herbicidal rate), Chenopodium album (Chenopodium album [12]) | herbicidal effect (herbicidal rate), Echinochloa crus-galli (Echinochloa crus-galli [13]) | herbicidal effect (herbicidal rate), southern crabgrass (southern crabgrass [14]) |
| --- | --- | --- | --- | --- | --- | --- | --- | --- | --- | --- | --- | --- | --- | --- | --- | --- |
| Cc1c(Cc2ccccc2N(C(=O)Oc2ccccc2)S(=O)(=O)C(F)(F)F)c(=O)on1C(C)(C)C [Compound 1-762] | 90% | 90% | 90% | 90% | 90% | 90% | 90% | 90% | 90% | 90% | 90% | 90% | 40% | 40% | 90% | 90% |
| CC(=O)N(c1ccccc1Cc1c(C)n(C(C)(C)C)oc1=O)S(=O)(=O)C(F)(F)F [Compound 1-293] | 90% | 90% | 90% | 90% | 90% | 90% | 90% | 90% | 90% | 90% | 90% | 90% | 40% | 40% | 90% | 90% |
| Cc1c(Cc2ccccc2N(C(=O)C2CC2)S(=O)(=O)C(F)(F)F)c(=O)on1C(C)(C)C [Compound 1-403] | 90% | 90% | 90% | 90% | 90% | 90% | 90% | 90% | 90% | 90% | 90% | 90% | 40% | 40% | 90% | 90% |
| CCC(C)n1oc(=O)c(Cc2ccccc2N(C(=O)Cc2ccccc2)S(=O)(=O)C(F)(F)F)c1C (centres unmarked) [Compound 1-504] | 90% | 90% | 90% | 90% | 90% | 90% | 90% | 90% | 90% | 90% | 90% | 90% | 40% | 40% | 90% | 90% |
| Cc1c(Cc2cc(F)ccc2NS(=O)(=O)C(F)(F)F)c(=O)on1CC(C)C [Compound 1-28] | 100% | 90% | 90% | 100% | 100% | 90% | 80% | 100% | 100% | 100% | 90% | 80% | 80% | 40% | 90% | 50% |
